Assay results: PubChem BioAssay (NCI)
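Interpolation was linear, between the two tested concentrations surrounding the appropriate level; five concentrations were tested over 48 hours in 96-well plates. The concentration for 50% growth inhibition is given as GI50. Definition used: TGI = concentration required for complete inhibition of growth.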

What was measured:
Assay in all cases: DTP human tumour cell line panel, 48 h
ACHN renal = system: ACHN renal
HOP-62 NSCLC = system: HOP-62 NSCLC
M14 melanoma = system: M14 melanoma
MALME-3M melanoma = system: MALME-3M melanoma
MOLT-4 leukemia = system: MOLT-4 leukemia
OVCAR-8 ovarian = system: OVCAR-8 ovarian
SK-MEL-28 melanoma = system: SK-MEL-28 melanoma
IGROV1 ovarian = system: IGROV1 ovarian
HT29 colon = system: HT29 colon
DU-145 prostate = system: DU-145 prostate

SMILES	GI50 (ACHN renal) [µM]	TGI (ACHN renal) [µM]	GI50 (HOP-62 NSCLC) [µM]	TGI (HOP-62 NSCLC) [µM]	GI50 (M14 melanoma) [µM]	TGI (M14 melanoma) [µM]	GI50 (MALME-3M melanoma) [µM]	TGI (MALME-3M melanoma) [µM]	GI50 (MOLT-4 leukemia) [µM]	TGI (MOLT-4 leukemia) [µM]	GI50 (OVCAR-8 ovarian) [µM]	TGI (OVCAR-8 ovarian) [µM]	GI50 (SK-MEL-28 melanoma) [µM]	TGI (SK-MEL-28 melanoma) [µM]	GI50 (IGROV1 ovarian) [µM]	TGI (IGROV1 ovarian) [µM]	GI50 (HT29 colon) [µM]	TGI (HT29 colon) [µM]	GI50 (DU-145 prostate) [µM]	TGI (DU-145 prostate) [µM]
CC[O-].CC[O-].O=C1C(c2ccccc2)=C([O-])c2ccccc21.O=C1C(c2ccccc2)=C([O-])c2ccccc21.[Ti+4]	> 100	> 100	> 100	> 100	> 100	> 100	> 100	> 100	> 100	> 100	> 100	> 100	> 100	> 100	> 100	> 100	> 100	> 100		
CCC[CH2][Sn]([CH2]CCC)([O]C(=O)C(N)CSC)[O]C(=O)C(N)CSC (configuration not stated)	12.3	30.2			10.5	16.2	7.19	48.7	2.42	7.65	12.6	38.1	5.86	18.2	17.8	34.2	17.2	44.7		
O=c1ccnc2c1ccc1[nH]cccc12		> 100		> 100		> 100		> 100		> 100		> 100		> 100		> 100		> 100		
Cc1nc2cc(N)c(F)cc2[nH]1		> 100		> 100				> 100		> 100		> 100		> 100		> 100		> 100		
O=S(=O)(c1ccc(N=C2NN=C(c3c[nH]c4ccccc34)CS2)cc1)N1CCOCC1	88.6	> 100				> 100	34.8	> 100	3.93	40.9	9.61	> 100	37.7	> 100	> 100	> 100	4.48	> 100	> 100	> 100
O=C([CH-]C(=O)c1ccccc1)c1ccccc1.O=C([CH-]C(=O)c1ccccc1)c1ccccc1.O=C([CH-]C(=O)c1ccccc1)c1ccccc1.[OH3+].[Y+3]	6.34	21.9	4.5	22.5	9.36	22	14	47.2	2.96	20.5	3.5	21.8	10.8	40.2	13.6	62.4	4.09	17.1		
COc1ccc(-c2ccc(/C=N/n3c(COc4ccc(Cl)cc4Cl)nn(CN4CCN(C)CC4)c3=S)o2)c([N+](=O)[O-])c1	21.9	55.7	29.6	79.5	19.8	53.9					18.9	53.5	47.8	> 100	45	> 100	41.2	> 100	17.1	> 100
